According to patent publication US8614327B2 (Vertex Pharmaceuticals Incorporated, priority 2004, dated 2013):

Biological target: T1, ΔF508-CFTR (Homo sapiens, UniProt P13569, DEL508-508)
T1 construct: expressed in transfected cells
Experiment: Membrane potential optical (FRET/VIPR) assay, identification of potentiator compounds
Format: cell-based
Conditions: Table 3, assay not given; for % Activity: relative efficacy
Outline: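 Double-addition potentiator screen: compound delivered in gluconate-substituted Cl^--free medium, membrane potential followed via CC2-DMPE/DiSBAC2(3) FRET on VIPR. Cells were ΔF508-CFTR-expressing NIH3T3 mouse fibroblasts, held 2 h at 37° C. then 24 h at 27° C. before assay.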

T1 sequence (P13569 with tags, fused parts or gaps DEL508-508): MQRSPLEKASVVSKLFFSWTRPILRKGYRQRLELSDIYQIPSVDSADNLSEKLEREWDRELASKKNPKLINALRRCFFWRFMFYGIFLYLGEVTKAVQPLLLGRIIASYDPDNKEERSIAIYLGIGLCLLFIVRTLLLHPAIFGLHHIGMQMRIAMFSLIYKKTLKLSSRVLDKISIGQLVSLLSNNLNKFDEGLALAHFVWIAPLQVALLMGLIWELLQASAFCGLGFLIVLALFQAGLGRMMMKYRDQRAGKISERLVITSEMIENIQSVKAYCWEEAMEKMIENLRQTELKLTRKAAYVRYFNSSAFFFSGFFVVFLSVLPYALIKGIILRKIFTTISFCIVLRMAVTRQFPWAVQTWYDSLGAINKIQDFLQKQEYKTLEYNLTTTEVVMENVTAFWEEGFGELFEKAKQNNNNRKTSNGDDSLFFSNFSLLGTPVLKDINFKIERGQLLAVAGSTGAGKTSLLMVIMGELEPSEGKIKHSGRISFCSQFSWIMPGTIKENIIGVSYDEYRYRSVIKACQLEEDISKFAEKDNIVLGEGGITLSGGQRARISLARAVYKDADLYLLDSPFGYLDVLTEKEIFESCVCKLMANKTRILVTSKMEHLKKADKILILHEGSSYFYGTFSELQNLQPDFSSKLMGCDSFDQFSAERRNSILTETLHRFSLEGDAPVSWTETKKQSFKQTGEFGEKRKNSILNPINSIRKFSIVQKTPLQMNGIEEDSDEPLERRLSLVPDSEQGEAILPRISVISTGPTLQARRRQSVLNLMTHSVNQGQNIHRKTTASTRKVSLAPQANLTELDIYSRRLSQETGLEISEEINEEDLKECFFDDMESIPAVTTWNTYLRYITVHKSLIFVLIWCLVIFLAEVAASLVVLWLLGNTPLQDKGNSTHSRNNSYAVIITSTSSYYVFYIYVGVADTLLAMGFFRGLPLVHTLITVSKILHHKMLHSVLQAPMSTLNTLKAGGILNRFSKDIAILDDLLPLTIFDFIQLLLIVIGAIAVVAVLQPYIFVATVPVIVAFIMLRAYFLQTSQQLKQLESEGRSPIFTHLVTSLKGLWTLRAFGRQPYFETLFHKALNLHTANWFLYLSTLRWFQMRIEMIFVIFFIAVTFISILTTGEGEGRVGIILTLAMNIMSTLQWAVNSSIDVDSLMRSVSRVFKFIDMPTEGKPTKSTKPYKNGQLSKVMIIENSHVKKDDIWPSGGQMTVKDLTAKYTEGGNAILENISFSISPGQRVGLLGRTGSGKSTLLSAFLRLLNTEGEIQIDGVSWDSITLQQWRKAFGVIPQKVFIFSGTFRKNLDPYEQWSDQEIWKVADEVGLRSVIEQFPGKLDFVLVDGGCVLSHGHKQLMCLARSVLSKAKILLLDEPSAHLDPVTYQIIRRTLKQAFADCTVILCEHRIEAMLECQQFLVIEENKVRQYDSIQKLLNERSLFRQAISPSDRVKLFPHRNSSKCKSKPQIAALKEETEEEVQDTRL

## CCOc1ccccc1-c1ccc(N)cc1NC(=O)c1c[nH]c2ccccc2c1=O [Compound 393, N-[5-amino-2-(2-ethoxyphenyl)-phenyl]-4-oxo-1H-quinoline-3-carboxamide]
  EC50: < 10 µM
  % Activity: ++ (between 25% to 100%)

## Cc1ccc2c(c1)c(=O)c(C(=O)Nc1ccccc1)cn2C [Compound 394, 1,6-dimethyl-4-oxo-N-phenyl-1H-quinoline-3-carboxamide]
  EC50: 25 to 60 µM
  % Activity: + (<25%)

## O=C(Nc1cc(O)c(C23CC4CC(CC(C4)C2)C3)cc1F)c1cnc2ccccc2c1O [Compound 395, N-[4-(1-adamantyl)-2-fluoro-5-hydroxy-phenyl]-4-hydroxy-quinoline-3-carboxamide]
  EC50: < 10 µM
  % Activity: ++ (between 25% to 100%)

## CC(C)(CNC(=O)OCC1CCOC1)c1ccc(NC(=O)c2c[nH]c3ccccc3c2=O)cc1 (stereo not drawn) [Compound 396, [2-methyl-2-[4-[(4-oxo-1H-quinolin-3-yl)carbonylamino]phenyl]-propyl]aminoformic acid tetrahydrofuran-3-ylmethyl ester]
  EC50: 10 to 25 µM
  % Activity: ++ (between 25% to 100%)

## O=C(Nc1ccc(-c2ccccc2)cc1)c1c[nH]c2ccccc2c1=O [Compound 397, 4-oxo-N-(4-phenylphenyl)-1H-quinoline-3-carboxamide]
  EC50: < 10 µM
  % Activity: ++ (between 25% to 100%)

## Cc1ccc(S(=O)(=O)Nc2ccccc2NC(=O)c2c[nH]c3ccccc3c2=O)cc1 [Compound 398, 4-oxo-N-[2-(p-tolylsulfonylamino)phenyl]-1H-quinoline-3-carboxamide]
  EC50: 10 to 25 µM
  % Activity: ++ (between 25% to 100%)

## CNc1ccc(C(C)C)c(NC(=O)c2c[nH]c3ccccc3c2=O)c1 [Compound 399, N-(2-isopropyl-5-methylamino-phenyl)-4-oxo-1H-quinoline-3-carboxamide]
  EC50: < 10 µM
  % Activity: ++ (between 25% to 100%)

## O=C(Nc1ccc(N2CCOCC2)nc1)c1c[nH]c2ccccc2c1=O [Compound 400, N-(6-morpholino-3-pyridyl)-4-oxo-1H-quinoline-3-carboxamide]
  EC50: 25 to 60 µM
  % Activity: + (<25%)

## Cc1cccc(-c2ccccc2NC(=O)c2c[nH]c3ccccc3c2=O)c1C [Compound 401, N-[2-(2,3-dimethylphenyl)phenyl]-4-oxo-1H-quinoline-3-carboxamide]
  EC50: < 10 µM
  % Activity: ++ (between 25% to 100%)

## O=C(Nc1ccc(-c2ccccc2)cn1)c1c[nH]c2ccccc2c1=O [Compound 402, 4-oxo-N-(5-phenyl-2-pyridyl)-1H-quinoline-3-carboxamide]
  EC50: < 10 µM
  % Activity: + (<25%)

## CC1(c2cc(F)c(NC(=O)c3cnc4ccccc4c3O)cc2O)CCCCCCC1 [Compound 403, N-[2-fluoro-5-hydroxy-4-(1-methylcyclooctyl)-phenyl]-4-hydroxy-quinoline-3-carboxamide]
  EC50: < 10 µM
  % Activity: ++ (between 25% to 100%)

## COc1cccc(OC)c1-c1cc2cc[nH]c2cc1NC(=O)c1c[nH]c2ccccc2c1=O [Compound 404, N-[5-(2,6-dimethoxyphenyl)-1H-indol-6-yl]-4-oxo-1H-quinoline-3-carboxamide]
  EC50: < 10 µM
  % Activity: ++ (between 25% to 100%)

## O=C(Nc1ccc(Cl)cc1)c1c[nH]c2ccccc2c1=O [Compound 405, N-(4-chlorophenyl)-4-oxo-1H-quinoline-3-carboxamide]
  EC50: < 10 µM
  % Activity: ++ (between 25% to 100%)

## CN(c1ccc(F)cc1)S(=O)(=O)c1ccc2[nH]cc(C(=O)Nc3cc4[nH]ccc4cc3C(C)(C)C)c(=O)c2c1 [Compound 406, 6-[(4-fluorophenyl)-methyl-sulfamoyl]-4-oxo-N-(5-tert-butyl-1H-indol-6-yl)-1H-quinoline-3-carboxamide]
  EC50: < 10 µM
  % Activity: ++ (between 25% to 100%)

## CC(C)(C)c1cc(F)c(NC(=O)c2c[nH]c3cccc(O)c3c2=O)cc1O [Compound 407, N-(2-fluoro-5-hydroxy-4-tert-butyl-phenyl)-5-hydroxy-4-oxo-1H-quinoline-3-carboxamide]
  EC50: < 10 µM
  % Activity: ++ (between 25% to 100%)

## COc1cccc(NC(=O)c2c[nH]c3ccccc3c2=O)c1 [Compound 408, N-(3-methoxyphenyl)-4-oxo-1H-quinoline-3-carboxamide]
  EC50: < 10 µM
  % Activity: ++ (between 25% to 100%)

## CCc1ccc(N(C)C)cc1NC(=O)c1c[nH]c2ccccc2c1=O [Compound 409, N-(5-dimethylamino-2-ethyl-phenyl)-4-oxo-1H-quinoline-3-carboxamide]
  EC50: < 10 µM
  % Activity: ++ (between 25% to 100%)

## O=C(Nc1ccccc1-c1ccc(Oc2ccccc2)cc1)c1c[nH]c2ccccc2c1=O [Compound 410, 4-oxo-N-[2-(4-phenoxyphenyl)phenyl]-1H-quinoline-3-carboxamide]
  EC50: < 10 µM
  % Activity: +++ (>100%)

## O=C(Nc1ccccc1)c1c[nH]c2cc(Cl)ccc2c1=O [Compound 411, 7-chloro-4-oxo-N-phenyl-1H-quinoline-3-carboxamide]
  EC50: < 10 µM
  % Activity: ++ (between 25% to 100%)

## CCOC(=O)c1c(NC(=O)c2c[nH]c3ccccc3c2=O)ccc2cc[nH]c12 [Compound 412, 6-[(4-oxo-1H-quinolin-3-yl)carbonylamino]-1H-indole-7-carboxylic acid ethyl ester]
  EC50: < 10 µM
  % Activity: ++ (between 25% to 100%)

## O=C(Nc1ccccc1Oc1ccccc1)c1c[nH]c2ccccc2c1=O [Compound 413, 4-oxo-N-(2-phenoxyphenyl)-1H-quinoline-3-carboxamide]
  EC50: < 10 µM
  % Activity: ++ (between 25% to 100%)

## O=C(Nc1ccc2nc[nH]c2c1)c1c[nH]c2ccccc2c1=O [Compound 414, N-(3H-benzoimidazol-5-yl)-4-oxo-1H-quinoline-3-carboxamide]
  EC50: 25 to 60 µM
  % Activity: + (<25%)

## COc1c(C(=O)Nc2ccc(C(C)(C)C)c(O)c2)cnc2ccccc12 [Compound 415, N-(3-Hydroxy-4-tert-butyl-phenyl)-4-methoxy-quinoline-3-carboxamide]
  EC50: < 10 µM
  % Activity: ++ (between 25% to 100%)

## CCCOC(=O)NCC(C)(C)c1ccc(NC(=O)c2c[nH]c3ccccc3c2=O)cc1 [Compound 416, [2-methyl-2-[4-[(4-oxo-1H-quinolin-3-yl)carbonylamino]phenyl]-propyl]aminoformic acid propyl ester]
  EC50: < 10 µM
  % Activity: ++ (between 25% to 100%)

## O=C(Nc1ccccc1-c1csc2ccccc12)c1c[nH]c2ccccc2c1=O [Compound 417, N-(2-(benzo[b]thiophen-3-yl)phenyl)-1,4-dihydro-4-oxoquinoline-3-carboxamide]
  EC50: < 10 µM
  % Activity: ++ (between 25% to 100%)

## CN(C)c1cccc(NC(=O)c2c[nH]c3ccccc3c2=O)c1 [Compound 418, N-(3-dimethylaminophenyl)-4-oxo-1H-quinoline-3-carboxamide]
  EC50: 10 to 25 µM
  % Activity: ++ (between 25% to 100%)

## CC(=O)Nc1cccc(NC(=O)c2c[nH]c3ccccc3c2=O)c1 [Compound 419, N-(3-acetylaminophenyl)-4-oxo-1H-quinoline-3-carboxamide]
  EC50: 25 to 60 µM
  % Activity: + (<25%)
